Test results from patent US20250170248A1, “SMARCA DEGRADERS AND USES THEREOF” (Kymera Therapeutics, Inc., priority 2021, published 2025).

Assays:
Type in all cases: cell-based
SMARCA2 [1] = target: T1, SMARCA2 (Homo sapiens, UniProt P51531); assay: MSD SMARCA2 degradation in A549 cell line; details: for SMARCA2 MSD A549 degradation 24 h: Average Dmax % / DC50: A549 cells; for DC50 / Dmax: 24 h; for DC50: read-out: SMARCA2 MSD A549 degradation 24 h: Average external-Abs DC50; for Dmax: A549, A549 cells
T1 sequence (P51531 whole entry): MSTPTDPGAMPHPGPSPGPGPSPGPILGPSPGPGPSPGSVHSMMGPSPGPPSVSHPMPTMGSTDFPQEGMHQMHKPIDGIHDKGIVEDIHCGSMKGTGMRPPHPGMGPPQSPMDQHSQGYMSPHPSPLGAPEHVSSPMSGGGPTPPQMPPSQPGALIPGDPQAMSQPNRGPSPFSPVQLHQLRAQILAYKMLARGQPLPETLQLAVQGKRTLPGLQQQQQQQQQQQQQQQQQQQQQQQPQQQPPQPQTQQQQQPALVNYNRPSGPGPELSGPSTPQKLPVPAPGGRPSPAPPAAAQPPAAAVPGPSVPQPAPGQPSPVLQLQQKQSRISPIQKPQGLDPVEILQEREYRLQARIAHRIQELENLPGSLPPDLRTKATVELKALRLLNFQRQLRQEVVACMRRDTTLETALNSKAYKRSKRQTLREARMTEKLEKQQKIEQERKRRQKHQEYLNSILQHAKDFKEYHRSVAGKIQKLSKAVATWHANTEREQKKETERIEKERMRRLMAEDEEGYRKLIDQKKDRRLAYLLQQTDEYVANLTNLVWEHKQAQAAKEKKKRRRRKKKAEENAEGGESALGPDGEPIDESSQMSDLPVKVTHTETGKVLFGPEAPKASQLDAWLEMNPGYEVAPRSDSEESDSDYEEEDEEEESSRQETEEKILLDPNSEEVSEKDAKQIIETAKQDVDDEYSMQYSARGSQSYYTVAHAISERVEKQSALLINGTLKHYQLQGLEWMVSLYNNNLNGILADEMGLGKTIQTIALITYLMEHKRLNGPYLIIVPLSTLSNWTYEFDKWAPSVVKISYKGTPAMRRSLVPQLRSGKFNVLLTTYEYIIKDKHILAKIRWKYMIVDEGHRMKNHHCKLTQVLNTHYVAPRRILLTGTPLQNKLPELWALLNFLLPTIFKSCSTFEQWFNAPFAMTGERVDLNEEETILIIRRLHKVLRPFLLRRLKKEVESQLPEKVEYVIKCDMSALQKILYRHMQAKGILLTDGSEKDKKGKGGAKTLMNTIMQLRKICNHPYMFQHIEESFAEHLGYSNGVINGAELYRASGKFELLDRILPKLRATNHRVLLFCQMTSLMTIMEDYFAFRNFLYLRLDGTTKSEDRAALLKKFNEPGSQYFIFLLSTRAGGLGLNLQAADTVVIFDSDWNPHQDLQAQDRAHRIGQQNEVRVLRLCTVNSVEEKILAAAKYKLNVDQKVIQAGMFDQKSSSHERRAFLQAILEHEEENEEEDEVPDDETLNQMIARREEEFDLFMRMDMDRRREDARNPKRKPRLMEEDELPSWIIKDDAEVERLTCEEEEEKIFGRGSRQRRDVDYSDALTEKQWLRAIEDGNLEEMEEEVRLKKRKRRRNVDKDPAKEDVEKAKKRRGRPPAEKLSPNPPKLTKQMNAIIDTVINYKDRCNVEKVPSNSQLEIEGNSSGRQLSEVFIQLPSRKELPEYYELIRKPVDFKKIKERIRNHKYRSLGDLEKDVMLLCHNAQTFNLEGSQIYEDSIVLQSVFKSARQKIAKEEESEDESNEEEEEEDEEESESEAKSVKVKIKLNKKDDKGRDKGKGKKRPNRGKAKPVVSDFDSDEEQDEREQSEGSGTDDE
How it was run: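 A549 cells treated 24 h with compound, 3-fold series from 1000 nM. Lysates captured on MSD plates and SMARCA2 quantified with anti-SMARCA2 and SULFO-TAG secondary antibodies (electrochemiluminescence). DC50 and Dmax (% degradation at 24 h) reported as letter bins.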

SMARCA4 = target: T2, SMARCA4 (Homo sapiens, UniProt P51532); assay: SMARCA4 Western blot degradation in MV4-11 cells; details: for Dmax: MV4-11, MV4-11 cells, read-out: SMARCA4 MSD MV411 degradation 24 h: average Dmax %; for Dmax / DC50: 24 h; for DC50 / SMARCA4 MSD MV411 degradation 24 h: average Dmax %: MV4-11 cells; for DC50: read-out: SMARCA4 MSD MV411 degradation 24 h: Mean external-Abs DC50
T2 construct: SMARCA2/SMARCA4 protein degradation selectivity in MV4-11 cells; endogenous in cells; host or cells: MV4-11
T2 sequence (P51532 whole entry): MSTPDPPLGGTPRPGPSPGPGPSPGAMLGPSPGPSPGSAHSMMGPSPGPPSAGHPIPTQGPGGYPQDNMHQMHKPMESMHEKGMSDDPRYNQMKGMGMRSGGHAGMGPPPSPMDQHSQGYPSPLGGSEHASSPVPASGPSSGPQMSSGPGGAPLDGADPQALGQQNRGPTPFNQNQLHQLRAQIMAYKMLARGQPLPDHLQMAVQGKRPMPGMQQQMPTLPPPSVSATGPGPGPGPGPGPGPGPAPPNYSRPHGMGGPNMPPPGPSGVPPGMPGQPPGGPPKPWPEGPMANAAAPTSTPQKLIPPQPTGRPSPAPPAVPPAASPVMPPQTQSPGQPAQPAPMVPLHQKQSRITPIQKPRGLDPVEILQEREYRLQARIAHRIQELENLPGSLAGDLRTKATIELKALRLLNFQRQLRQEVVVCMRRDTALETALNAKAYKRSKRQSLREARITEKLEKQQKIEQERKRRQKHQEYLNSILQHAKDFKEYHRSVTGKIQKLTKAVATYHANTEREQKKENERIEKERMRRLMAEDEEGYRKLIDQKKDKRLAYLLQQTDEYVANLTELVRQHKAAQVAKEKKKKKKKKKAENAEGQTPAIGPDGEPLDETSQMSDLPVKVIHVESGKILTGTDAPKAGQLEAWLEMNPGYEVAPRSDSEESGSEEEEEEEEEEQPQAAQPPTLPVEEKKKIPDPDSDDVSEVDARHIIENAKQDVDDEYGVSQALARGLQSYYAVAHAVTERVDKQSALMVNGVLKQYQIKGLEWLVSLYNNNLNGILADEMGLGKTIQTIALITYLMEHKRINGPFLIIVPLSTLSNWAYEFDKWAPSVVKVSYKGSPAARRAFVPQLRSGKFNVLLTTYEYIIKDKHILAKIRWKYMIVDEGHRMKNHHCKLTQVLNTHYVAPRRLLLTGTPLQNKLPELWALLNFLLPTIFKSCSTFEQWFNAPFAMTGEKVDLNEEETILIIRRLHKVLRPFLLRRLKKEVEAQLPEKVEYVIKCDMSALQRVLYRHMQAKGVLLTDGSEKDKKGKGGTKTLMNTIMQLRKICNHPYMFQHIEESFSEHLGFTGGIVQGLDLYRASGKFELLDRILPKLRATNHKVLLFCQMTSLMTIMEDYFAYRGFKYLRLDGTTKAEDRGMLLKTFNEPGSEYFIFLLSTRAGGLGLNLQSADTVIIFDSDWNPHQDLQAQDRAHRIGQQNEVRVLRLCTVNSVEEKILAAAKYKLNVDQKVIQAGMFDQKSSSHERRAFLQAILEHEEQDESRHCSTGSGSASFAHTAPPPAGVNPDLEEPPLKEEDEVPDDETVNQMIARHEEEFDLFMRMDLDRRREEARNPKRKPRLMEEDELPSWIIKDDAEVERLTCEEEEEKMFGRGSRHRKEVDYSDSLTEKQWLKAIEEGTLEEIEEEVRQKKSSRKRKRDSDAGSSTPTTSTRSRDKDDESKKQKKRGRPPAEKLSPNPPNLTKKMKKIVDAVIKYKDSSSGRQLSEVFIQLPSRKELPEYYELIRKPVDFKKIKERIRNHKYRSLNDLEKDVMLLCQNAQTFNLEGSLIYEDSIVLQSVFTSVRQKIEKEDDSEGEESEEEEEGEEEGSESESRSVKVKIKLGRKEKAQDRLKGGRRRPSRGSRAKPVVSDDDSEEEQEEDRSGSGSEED
How it was run: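 24 h compound exposure, MV4-11; RIPA lysates → SDS-PAGE → NC membrane; anti-SMARCA2/BRM, anti-BRG1, β-actin loading control; LI-COR fluorescence read. DC50 and Dmax at 24 h reported as letter bins.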

SMARCA2 [2] = target: T1, SMARCA2; assay: SMARCA2 Western blot degradation in MV4-11 cells; design: SMARCA2/SMARCA4 protein degradation selectivity in MV4-11 cells; endogenous in cells; host or cells: MV4-11; details: for Dmax: MV4-11, MV4-11 cells, read-out: SMARCA2 MSD MV411 degradation 24 h: average Dmax %; for Dmax / DC50 / SMARCA2 MSD MV411 degradation 24 h: average Dmax %: 24 h; for DC50 / Selectivity in MV411 / SMARCA2 MSD MV411 degradation 24 h: average Dmax %: MV4-11 cells; for DC50: read-out: SMARCA2 MSD MV411 degradation 24 h: Mean external-Abs DC50; for Selectivity in MV411: SMARCA2/4 selectivity

SMILES	SMARCA2 MSD A549 degradation 24 h: Average Dmax % (SMARCA2 [1])	DC50 (SMARCA2 [1])	Dmax (SMARCA4)	DC50 (SMARCA4)	Dmax (SMARCA2 [2])	DC50 (SMARCA2 [2])	Selectivity in MV411 (SMARCA2 [2])	Dmax (SMARCA2 [1])	SMARCA4 MSD MV411 degradation 24 h: average Dmax % (SMARCA4)	SMARCA2 MSD MV411 degradation 24 h: average Dmax % (SMARCA2 [2])
Cc1cc(Cl)ccc1C#CCNC(=O)[C@@H]1C[C@@H](O)CN1C(=O)[C@@H](NC(=O)[C@H]1CCC2(CC1)C[C@H](N1CCC(c3cnc(N4CCN5c6cc(-c7ccccc7O)nnc6NC[C@H]5C4)nc3)CC1)C2)C(C)(C)C (single isomer, unassigned) [I-104]	A (A (>90% degradation))	> 100 nM	70 to 90%	> 100 nM	< 50%	> 100 nM	C (C (10-100 fold))	–	–	–
C#Cc1ccc(CNC(=O)[C@@H]2C[C@@H](O)CN2C(=O)[C@@H](NC(=O)[C@H]2CC3(C2)C[C@H](N2CCC(N4CCC(N5CCN6c7cc(-c8ccccc8O)nnc7NC[C@H]6C5)CC4)CC2)C3)C(C)(C)C)cc1 (single isomer, unassigned) [I-113]	–	10 to 50 nM	50 to 70%	> 100 nM	70 to 90%	1 to 10 nM	B (B (>100-500 fold))	> 90%	–	–
CC(C)(C)[C@H](NC(=O)[C@H]1CCC2(CC1)C[C@H](N1CCC(c3cnc(N4CCN5c6cc(-c7ccccc7O)nnc6NC[C@H]5C4)nc3)CC1)C2)C(=O)N1C[C@H](O)C[C@H]1C(=O)NCC#Cc1ccc(Cl)cc1 (single isomer, unassigned) [I-114]	D (D (<50% degradation))	> 100 nM	–	> 100 nM	–	> 100 nM	C (C (10-100 fold))	–	D (D (<50% degradation))	D (D (<50% degradation))
C#Cc1ccc(CNC(=O)[C@@H]2C[C@@H](O)CN2C(=O)[C@@H](NC(=O)[C@H]2CCC3(CC2)C[C@H](N2CCC(c4cnc(N5CCN6c7cc(-c8ccccc8O)nnc7NC[C@H]6C5)nc4)CC2)C3)C(C)(C)C)c(F)c1 (single isomer, unassigned) [I-116]	A (A (>90% degradation))	10 to 50 nM	–	> 100 nM	–	1 to 10 nM	B (B (>100-500 fold))	–	D (D (<50% degradation))	B (B (>70-90% degradation))
CC#Cc1ccc(CNC(=O)[C@@H]2C[C@@H](O)CN2C(=O)[C@@H](NC(=O)[C@H]2CCC3(CC2)C[C@H](N2CCC(c4cnc(N5CCN6c7cc(-c8ccccc8O)nnc7NC[C@H]6C5)nc4)CC2)C3)C(C)(C)C)cc1 (single isomer, unassigned) [I-117]	A (A (>90% degradation))	> 100 nM	–	> 100 nM	–	10 to 100 nM	C (C (10-100 fold))	–	D (D (<50% degradation))	C (C (50-70% degradation))
C#Cc1ccc(CNC(=O)[C@@H]2C[C@@H](O)CN2C(=O)[C@@H](NC(=O)[C@H]2CCC3(CC2)C[C@H](N2CCN(c4cnc(N5CCN6c7cc(-c8ccccc8O)nnc7NC[C@H]6C5)nc4)CC2)C3)C(C)(C)C)cc1 (single isomer, unassigned) [I-122]	–	10 to 50 nM	50 to 70%	10 to 100 nM	70 to 90%	1 to 10 nM	C (C (10-100 fold))	> 90%	–	–
Cc1cc(Cl)ccc1C#CCNC(=O)[C@@H]1C[C@@H](O)CN1C(=O)[C@@H](NC(=O)[C@H]1CCC2(CC1)C[C@H](N1CCC(c3cnc(N4CCN5c6cc(-c7ccccc7O)nnc6NC[C@H]5C4)nc3)CC1)C2)C(C)(C)C (single isomer, unassigned) [I-126]	D (D (<50% degradation))	> 100 nM	–	> 100 nM	–	> 100 nM	C (C (10-100 fold))	–	D (D (<50% degradation))	D (D (<50% degradation))
C#Cc1ccc(CNC(=O)[C@@H]2C[C@@H](O)CN2C(=O)[C@@H](NC(=O)[C@H]2CCC3(CC2)C[C@H](N2CCC(c4cnc(N5CCN6c7cc(-c8ccccc8O)nnc7NC[C@H]6C5)nc4)CC2)C3)C(C)(C)CCO)cc1 (single isomer, unassigned) [I-131]	–	10 to 50 nM	50 to 70%	10 to 100 nM	> 90%	< 1 nM	C (C (10-100 fold))	> 90%	–	–
Cc1ncsc1-c1ccc(CNC(=O)[C@@H]2C[C@@H](O)CN2C(=O)[C@@H](NC(=O)[C@H]2CCC3(CC2)C[C@H](N2CCC4(CC2)CN(C(=O)N2CCN5c6cc(-c7ccccc7O)nnc6NC[C@H]5C2)CCO4)C3)C(C)(C)C)cc1 (single isomer, unassigned) [I-133]	–	> 100 nM	50 to 70%	> 100 nM	70 to 90%	10 to 100 nM	C (C (10-100 fold))	70 to 90%	–	–
C#Cc1ccc(CNC(=O)[C@@H]2C[C@@H](O)CN2C(=O)[C@@H](NC(=O)[C@H]2CCC3(CC2)C[C@H](N2CCC(c4ccc(N5CCN6c7cc(-c8ccccc8O)nnc7NC[C@H]6C5)nc4)CC2)C3)C(C)(C)C)cc1 (single isomer, unassigned) [I-155]	–	10 to 50 nM	< 50%	> 100 nM	70 to 90%	1 to 10 nM	A (A (>500 fold))	> 90%	–	–
C#Cc1ccc(CNC(=O)[C@@H]2C[C@@H](O)CN2C(=O)[C@@H](NC(=O)[C@H]2CCC3(CC2)C[C@H](N2CCC(c4ccc(N5CCN6c7cc(-c8ccccc8O)nnc7NC[C@H]6C5)nc4)CC2)C3)C(C)(C)C)cc1 (single isomer, unassigned) [I-156]	A (A (>90% degradation))	10 to 50 nM	–	10 to 100 nM	–	1 to 10 nM	C (C (10-100 fold))	–	B (B (>70-90% degradation))	B (B (>70-90% degradation))

Now from value to compound:

SMARCA2 MSD A549 degradation 24 h: Average Dmax % (SMARCA2 [1])	DC50 (SMARCA2 [1])	Dmax (SMARCA4)	DC50 (SMARCA4)	Dmax (SMARCA2 [2])	DC50 (SMARCA2 [2])	Selectivity in MV411 (SMARCA2 [2])	Dmax (SMARCA2 [1])	SMARCA4 MSD MV411 degradation 24 h: average Dmax % (SMARCA4)	SMARCA2 MSD MV411 degradation 24 h: average Dmax % (SMARCA2 [2])	SMILES
–	< 10 nM	–	> 100 nM	–	1 to 10 nM	C (C (10-100 fold))	> 90%	C (C (50-70% degradation))	B (B (>70-90% degradation))	C#Cc1ccc(CNC(=O)[C@@H]2C[C@@H](O)CN2C(=O)[C@@H](NC(=O)[C@H]2CCC3(CC2)C[C@H](N2CCC(c4cnc(N5CCN6c7cc(-c8ccccc8O)nnc7NC[C@H]6C5)nc4)CC2)C3)C(C)(C)C)c(OC)c1 (single isomer, unassigned) [I-125]
–	10 to 50 nM	> 90%	10 to 100 nM	> 90%	1 to 10 nM	C (C (10-100 fold))	> 90%	–	–	C#Cc1ccc(CNC(=O)[C@@H]2C[C@@H](O)CN2C(=O)[C@@H](NC(=O)[C@H]2CCC3(CC2)C[C@H](N2CCC(c4cnc(N5CCN6c7cc(-c8ccccc8O)nnc7NC[C@H]6C5)nc4)CC2)C3)C(C)(C)C)c(OCCCN(C)C)c1 (single isomer, unassigned) [I-129]
–	< 10 nM	> 90%	10 to 100 nM	> 90%	1 to 10 nM	D (D (<10 fold))	> 90%	–	–	C#Cc1ccc(CNC(=O)[C@@H]2C[C@@H](O)CN2C(=O)[C@@H](NC(=O)[C@H]2CCC3(CC2)C[C@H](N2CCC(c4cnc(N5CCN6c7cc(-c8ccccc8O)nnc7NC[C@H]6C5)nc4)CC2)C3)C(C)(C)C)c(OCCCOC)c1 (single isomer, unassigned) [I-130]
A (A (>90% degradation))	10 to 50 nM	–	10 to 100 nM	–	1 to 10 nM	D (D (<10 fold))	–	A (A (>90% degradation))	A (A (>90% degradation))	C#Cc1ccc(CNC(=O)[C@@H]2C[C@@H](O)CN2C(=O)[C@@H](NC(=O)[C@H]2CCC3(CC2)C[C@H](N2CCC(c4cnc(N5CCN6c7cc(-c8ccccc8O)nnc7NC[C@H]6C5)nc4)CC2)C3)C(C)(C)C)c(OCCCOC)c1 (single isomer, unassigned) [I-149]
A (A (>90% degradation))	50 to 100 nM	–	10 to 100 nM	–	1 to 10 nM	C (C (10-100 fold))	–	B (B (>70-90% degradation))	B (B (>70-90% degradation))	C#Cc1ccc(CNC(=O)[C@@H]2C[C@@H](O)CN2C(=O)[C@@H](NC(=O)[C@H]2CCC3(CC2)C[C@H](N2CCC(c4cnc(N5CCN6c7cc(-c8ccccc8O)nnc7NC[C@H]6C5)nc4)CC2)C3)C(C)(C)C)c(OCCCN(C)C)c1 (single isomer, unassigned) [I-158]
